Assay results reported in patent US20160287566A1, “Anti-demodectic active agents and topical compositions for the treatment of demodicosis in humans and animals” (priority 2015, published 2016).
Entries after “also recorded” stand apart in the source; their conditions may differ.

Experiments:
[1] = cited from earlier work
[2] = system: Demodex; experiment: Human in vivo testing of topical compositions (inventor's self-test, once daily at night) on signs and symptoms of demodicosis
Source text: Demodectic mites rapidly desiccate and die when removed from the body and cannot reproduce in vitro, and skin conditions triggered by demodex are part of a complex innate immune response not yet fully explained by medical research. […] Treatment is preferentially once-daily, at night, with topical applications, of a rinse-off shampoo/shower gel, and of a leave-on skin lotion. Treatment of the inflammatory response to demodex with compositions comprising the invention is novel and not previously reported. Treatment of the inflammatory response to demodex includes treatment of type 1 flushing rosacea, type 2 acne rosacea, type 4 ocular rosacea, demodicosis gravis, granulomatous rosacea, and pityriasis folliculorum, and treatment of demodicosis in mammalian quadrupeds, namely, demodectic mange.
Sebaceous glands and meibomian glands clogged by mite-detritus atrophy somewhat, extending the time for complete meibomian gland and pilosebaceous unit healing to approximately 110 days.^12 The foregoing results are consistent with the suppression or eradication of demodectic mites, establishing piroctone olamine treatment as anti-demodectic, as shown by the reduction or elimination of blepharitis, meibomian gland dysfunction, and papules about the eyelids, nose, lips, and lip margins.
The rinse-off cleanser of the compositions comprising the invention, is used as a typical topical shampoo/shower gel, and can be used over the entire scalp and body, with the exception that the rinse-off cleanser is applied to a wet body and lathered without running shower-water, so that the cleanser can be massaged onto the skin and scalp for 3 to 5 minutes, paying particular attention to the face and margins of the eyelids, and then rinsed off. Neither composition is intended to be applied directly onto the cornea, as the eyes are expected to be shut when applying either composition.
The leave-on lotion described herein is used as any typical lotion, and can be used over the entire body, paying particular attention to the face and margins of the eyes, preferentially at night. […]

[3] = system: Malassezia; experiment: Self-treatment of seborrheic dermatitis with climbazole topical products; type: in vivo, human; settings: rinse-off shampoo/shower gel and leave-on lotion with 0.07% climbazole as active ingredient, MCT oil base
Source text: A brief history underscores the relevance of the test results. […] Dermatitis caused a severe impairment in the quality of life. Therefore, beginning three years ago, the inventor studied dermal inflammations, to conduct an accurate differential diagnosis and treat their skin condition. […] Hegor's product however contains sodium lauryl sulfate, which irritates the skin and so this shampoo cannot be used as a leave-on lotion. Moreover, all commercial lotions are formulated with oils with carbon-chain lengths longer than 10 such that Malassezia metabolizes all commercial lotions, which greatly exacerbated the inventor's seborrheic dermatitis. (See, non-patent reference number 30, by Wilde.) Dissatisfied with commercial products that made seborrheic skin conditions worse, sixteen months ago the inventor compounded topical compositions, a rinse-off shampoo/shower gel and a leave-on lotion, where the active ingredient was 0.07% climbazole and the base-oil was exclusively MCT oil (caprylic/capric oil), comprised only of carbon chain lengths of C8 and C10. While using this compounded topical treatment, all symptoms of seborrheic dermatitis induced by Malassezia were eliminated approximately one year ago. […]

[4] = usage thousands of time in excess of the compositions disclosed; cited from earlier work

Row | Compound | solubility in water [1] | red eye and dry eye symptoms ([2]; under 0.07% climbazole-only compositions, after seborrheic dermatitis symptoms were eliminated) | symptoms of seborrheic dermatitis induced by Malassezia [3] | toxicity in topical usage [4] | anti-demodectic treatment effect (concluded from symptom relief) ([2]; after compounding and testing the compositions, human test subject) | symptoms and signs of blepharitis, meibomian gland dysfunction, and papules about the eyelid margins and lip margins ([2]; topical compositions with 0.14% piroctone olamine as oil in water emulsion, rinse-off shampoo/shower gel and leave-on lotion once daily at night)
1 | CC(C)(C)C(=O)C(Oc1ccc(Cl)cc1)n1ccnc1 (stereo not shown) [climbazole, 1-(4-Chlorophenoxy)-1-(imidazol-1-yl)-3,3-dimethyl-2-butanone] | barely soluble | increased significantly | eliminated | – | – | –
2 | Cc1cc(CC(C)CC(C)(C)C)n(O)c(=O)c1.NCCO (stereo not shown) [piroctone olamine, 1-Hydroxy-4methyl-6-(2,4,4-trimethylpentyl)-2(1H) pyridinone, 2-aminoethanol salt] | barely soluble | – | – | non-toxic | effective anti-demodectic treatment | reduced and eliminated; also recorded: rapid and dramatic reduction
